{"source": "patent US11866720B2", "about": "“Transgenic or non-transgenic plants with mutated protoporphyrinogen oxidase having increased tolerance to herbicides” (priority 2013, dated 2024)", "tested_on": "transgenic Arabidopsis thaliana plants expressing wildtype or mutated PPO", "assay": "Greenhouse tolerance test of transgenic T1 Arabidopsis plants (phytotox / injury rating 0-100)", "type": "in vivo", "settings": "for Plant growth injury, scale 0-100, 100 is 100% damage: +1% MSO", "key": {"[1]": {"settings": "non-transgenic Arabidopsis, POST, 7 DAT, 75 g ai/ha"}, "[2]": {"settings": "non-transgenic Arabidopsis, POST, 7 DAT, 150 g ai/ha"}, "[3]": {"settings": "non-transgenic Arabidopsis, POST, 7 DAT, 300 g ai/ha"}, "[4]": {"settings": "Ø F420V 1, POST, 7 DAT, 75 g ai/ha"}, "[5]": {"settings": "Ø F420V 1, POST, 7 DAT, 150 g ai/ha"}, "[6]": {"settings": "Ø F420V 1, POST, 7 DAT, 300 g ai/ha"}, "[7]": {"settings": "Ø F420V 2, POST, 7 DAT, 75 g ai/ha"}, "[8]": {"settings": "Ø F420V 2, POST, 7 DAT, 150 g ai/ha"}, "[9]": {"settings": "Ø F420V 2, POST, 7 DAT, 300 g ai/ha"}, "[10]": {"settings": "Ø F420V 3, POST, 7 DAT, 75 g ai/ha"}, "[11]": {"settings": "Ø F420V 3, POST, 7 DAT, 150 g ai/ha"}, "[12]": {"settings": "Ø F420V 3, POST, 7 DAT, 300 g ai/ha"}, "[13]": {"settings": "Ø R128A, F420V 1, POST, 7 DAT, 75 g ai/ha"}, "[14]": {"settings": "Ø R128A, F420V 1, POST, 7 DAT, 150 g ai/ha"}, "[15]": {"settings": "Ø R128A, F420V 1, POST, 7 DAT, 300 g ai/ha"}, "[16]": {"settings": "Ø R128A, F420V 1 to 3, 75 g ai/ha"}, "[17]": {"settings": "Ø R128A, F420V 1 to 3, 150 g ai/ha"}, "[18]": {"settings": "Ø R128A, F420V 1 to 3, 300 g ai/ha"}, "[19]": {"settings": "Ø R128A, F420V 2, POST, 7 DAT, 75 g ai/ha"}, "[20]": {"settings": "Ø R128A, F420V 2, POST, 7 DAT, 150 g ai/ha"}, "[21]": {"settings": "Ø R128A, F420V 2, POST, 7 DAT, 300 g ai/ha"}, "[22]": {"settings": "Ø R128A, F420V 3, POST, 7 DAT, 75 g ai/ha"}, "[23]": {"settings": "Ø R128A, F420V 3, POST, 7 DAT, 150 g ai/ha"}, "[24]": {"settings": "Ø R128A, F420V 3, POST, 7 DAT, 300 g ai/ha"}, "[25]": {"settings": "Ø non-transgenic Arabidopsis, POST, 7 DAT, 75 g ai/ha"}, "[26]": {"settings": "Ø non-transgenic Arabidopsis, POST, 7 DAT, 150 g ai/ha"}, "[27]": {"settings": "Ø non-transgenic Arabidopsis, POST, 7 DAT, 300 g ai/ha"}}, "note": "Where “and” joins values, the source holds several entries; their conditions need not be identical. Equal values may be shown once."}
{"molecule": "C#CCN1C(=O)C(F)(F)Oc2cc(F)c(-n3c(=O)n(C)c(=S)n(C)c3=O)cc21", "values": [{"measurement": "Injury Rating 0-100% (0 = no injury, 100 = total control)", "setting": "Line 2, F420V, SEQ_ID 2 & 4, 19 DAT, 150 g/Ha + 1% MSO", "value": "90% and 85% and 45%"}, {"measurement": "Plant growth injury, scale 0-100, 100 is 100% damage", "setting": "[1]", "value": 98, "unit": "%"}, {"measurement": "Plant growth injury, scale 0-100, 100 is 100% damage", "setting": "[2]", "value": 98, "unit": "%"}, {"measurement": "Plant growth injury, scale 0-100, 100 is 100% damage", "setting": "[3]", "value": 98, "unit": "%"}, {"measurement": "Plant growth injury, scale 0-100, 100 is 100% damage", "setting": "[4]", "value": 17, "unit": "%"}, {"measurement": "Plant growth injury, scale 0-100, 100 is 100% damage", "setting": "[5]", "value": 28, "unit": "%"}, {"measurement": "Plant growth injury, scale 0-100, 100 is 100% damage", "setting": "[6]", "value": 36, "unit": "%"}, {"measurement": "Plant growth injury, scale 0-100, 100 is 100% damage", "setting": "Ø F420V 1 to 3, 75 g ai/ha", "value": 11, "unit": "%"}, {"measurement": "Plant growth injury, scale 0-100, 100 is 100% damage", "setting": "Ø F420V 1 to 3, 150 g ai/ha", "value": 17, "unit": "%"}, {"measurement": "Plant growth injury, scale 0-100, 100 is 100% damage", "setting": "Ø F420V 1 to 3, 300 g ai/ha", "value": 26, "unit": "%"}, {"measurement": "Plant growth injury, scale 0-100, 100 is 100% damage", "setting": "[7]", "value": 9, "unit": "%"}, {"measurement": "Plant growth injury, scale 0-100, 100 is 100% damage", "setting": "[8]", "value": 11, "unit": "%"}, {"measurement": "Plant growth injury, scale 0-100, 100 is 100% damage", "setting": "[9]", "value": 22, "unit": "%"}, {"measurement": "Plant growth injury, scale 0-100, 100 is 100% damage", "setting": "[10]", "value": 8, "unit": "%"}, {"measurement": "Plant growth injury, scale 0-100, 100 is 100% damage", "setting": "[11]", "value": 12, "unit": "%"}, {"measurement": "Plant growth injury, scale 0-100, 100 is 100% damage", "setting": "[12]", "value": 22, "unit": "%"}, {"measurement": "Plant growth injury, scale 0-100, 100 is 100% damage", "setting": "[13]", "value": 18, "unit": "%"}, {"measurement": "Plant growth injury, scale 0-100, 100 is 100% damage", "setting": "[14]", "value": 23, "unit": "%"}, {"measurement": "Plant growth injury, scale 0-100, 100 is 100% damage", "setting": "[15]", "value": 26, "unit": "%"}, {"measurement": "Plant growth injury, scale 0-100, 100 is 100% damage", "setting": "[16]", "value": 18, "unit": "%"}, {"measurement": "Plant growth injury, scale 0-100, 100 is 100% damage", "setting": "[17]", "value": 24, "unit": "%"}, {"measurement": "Plant growth injury, scale 0-100, 100 is 100% damage", "setting": "[18]", "value": 32, "unit": "%"}, {"measurement": "Plant growth injury, scale 0-100, 100 is 100% damage", "setting": "[19]", "value": 24, "unit": "%"}, {"measurement": "Plant growth injury, scale 0-100, 100 is 100% damage", "setting": "[20]", "value": 20, "unit": "%"}, {"measurement": "Plant growth injury, scale 0-100, 100 is 100% damage", "setting": "[21]", "value": 33, "unit": "%"}, {"measurement": "Plant growth injury, scale 0-100, 100 is 100% damage", "setting": "[22]", "value": 11, "unit": "%"}, {"measurement": "Plant growth injury, scale 0-100, 100 is 100% damage", "setting": "[23]", "value": 30, "unit": "%"}, {"measurement": "Plant growth injury, scale 0-100, 100 is 100% damage", "setting": "[24]", "value": 36, "unit": "%"}, {"measurement": "Plant growth injury, scale 0-100, 100 is 100% damage", "setting": "[25]", "value": 98, "unit": "%"}, {"measurement": "Plant growth injury, scale 0-100, 100 is 100% damage", "setting": "[26]", "value": 98, "unit": "%"}, {"measurement": "Plant growth injury, scale 0-100, 100 is 100% damage", "setting": "[27]", "value": 98, "unit": "%"}]}
{"molecule": "CC(C)N(C)S(=O)(=O)NC(=O)c1cc(-n2c(=O)cc(C(F)(F)F)n(C)c2=O)c(F)cc1Cl", "note": "[Saflufenacil, saflufenacil]", "values": [{"measurement": "Plant growth injury, scale 0-100, 100 is 100% damage", "setting": "[1]", "value": 98, "unit": "%"}, {"measurement": "Plant growth injury, scale 0-100, 100 is 100% damage", "setting": "[2]", "value": 98, "unit": "%"}, {"measurement": "Plant growth injury, scale 0-100, 100 is 100% damage", "setting": "[3]", "value": 98, "unit": "%"}, {"measurement": "Plant growth injury, scale 0-100, 100 is 100% damage", "setting": "[4]", "value": 39, "unit": "%"}, {"measurement": "Plant growth injury, scale 0-100, 100 is 100% damage", "setting": "[5]", "value": 60, "unit": "%"}, {"measurement": "Plant growth injury, scale 0-100, 100 is 100% damage", "setting": "[6]", "value": 77, "unit": "%"}, {"measurement": "Plant growth injury, scale 0-100, 100 is 100% damage", "setting": "Ø F420V 1 to 3, 75 g ai/ha", "value": 42, "unit": "%"}, {"measurement": "Plant growth injury, scale 0-100, 100 is 100% damage", "setting": "Ø F420V 1 to 3, 150 g ai/ha", "value": 60, "unit": "%"}, {"measurement": "Plant growth injury, scale 0-100, 100 is 100% damage", "setting": "Ø F420V 1 to 3, 300 g ai/ha", "value": 76, "unit": "%"}, {"measurement": "Plant growth injury, scale 0-100, 100 is 100% damage", "setting": "[7]", "value": 36, "unit": "%"}, {"measurement": "Plant growth injury, scale 0-100, 100 is 100% damage", "setting": "[8]", "value": 55, "unit": "%"}, {"measurement": "Plant growth injury, scale 0-100, 100 is 100% damage", "setting": "[9]", "value": 72, "unit": "%"}, {"measurement": "Plant growth injury, scale 0-100, 100 is 100% damage", "setting": "[10]", "value": 51, "unit": "%"}, {"measurement": "Plant growth injury, scale 0-100, 100 is 100% damage", "setting": "[11]", "value": 66, "unit": "%"}, {"measurement": "Plant growth injury, scale 0-100, 100 is 100% damage", "setting": "[12]", "value": 78, "unit": "%"}, {"measurement": "Plant growth injury, scale 0-100, 100 is 100% damage", "setting": "[13]", "value": 16, "unit": "%"}, {"measurement": "Plant growth injury, scale 0-100, 100 is 100% damage", "setting": "[14]", "value": 18, "unit": "%"}, {"measurement": "Plant growth injury, scale 0-100, 100 is 100% damage", "setting": "[15]", "value": 22, "unit": "%"}, {"measurement": "Plant growth injury, scale 0-100, 100 is 100% damage", "setting": "[16]", "value": 18, "unit": "%"}, {"measurement": "Plant growth injury, scale 0-100, 100 is 100% damage", "setting": "[17]", "value": 20, "unit": "%"}, {"measurement": "Plant growth injury, scale 0-100, 100 is 100% damage", "setting": "[18]", "value": 21, "unit": "%"}, {"measurement": "Plant growth injury, scale 0-100, 100 is 100% damage", "setting": "[19]", "value": 22, "unit": "%"}, {"measurement": "Plant growth injury, scale 0-100, 100 is 100% damage", "setting": "[20]", "value": 24, "unit": "%"}, {"measurement": "Plant growth injury, scale 0-100, 100 is 100% damage", "setting": "[21]", "value": 22, "unit": "%"}, {"measurement": "Plant growth injury, scale 0-100, 100 is 100% damage", "setting": "[22]", "value": 18, "unit": "%"}, {"measurement": "Plant growth injury, scale 0-100, 100 is 100% damage", "setting": "[23]", "value": 18, "unit": "%"}, {"measurement": "Plant growth injury, scale 0-100, 100 is 100% damage", "setting": "[24]", "value": 19, "unit": "%"}, {"measurement": "Plant growth injury, scale 0-100, 100 is 100% damage", "setting": "[25]", "value": 98, "unit": "%"}, {"measurement": "Plant growth injury, scale 0-100, 100 is 100% damage", "setting": "[26]", "value": 98, "unit": "%"}, {"measurement": "Plant growth injury, scale 0-100, 100 is 100% damage", "setting": "[27]", "value": 98, "unit": "%"}]}
